9 compounds from patent US5567693A, “Method for inhibiting angiogenesis, proliferation of endothelial or tumor cells and tumor growth” (American Cyanamid Company, priority 1994, dated 1996) can be followed below.

For assay [1], the system named is Adult Bovine Aortic Endothelial (ABAE) cell line. Kind of assay: Antiproliferative activity in ABAE cell line, PROTOCOL 1. Format: cell-based. The following applies: Bos taurus, PROTOCOL 1, 48 hours. How it is done:
The antiproliferative activity of the compounds of Formula I in an Adult Bovine Aortic Endothelial (ABAE) cell line and in Human Tumor cell lines is evaluated in three similar assays that measure growth inhibition. The assays are identified as follows: PROTOCOL 1,2,and 3 are described in greater detail hereinbelow. In general, according to PROTOCOLS 1 and 2, the target ABAE and/or Human Tumor cells are exposed to the compounds of Formula I for 48 hours. PROTOCOL 3 exposes ABAE cells to the compounds for 4 days. A detailed description of the protocols is as follows: PROTOCOL 1 Antiproliferative Activity in Human Tumor and Adult Bovine Aortic Endothelial Cell Lines (ABAE) The antiproliferative activity of the compounds of Formula I of the present invention is evaluated in a panel comprised of human tumor cell lines and an adult bovine aortic endothelial cell line (ABAE). The human tumor cell lines are from All cell lines are maintained in log phase in RPMI 1640 media, supplemented with 5% fetal calf serum, penicillin/streptomycin and 2 mM L-glutamine. Cultures are renewed after 20 passages with cells from a fresh stock of batch-frozen early passage cells. Cell lines are routinely checked for mycoplasma contamination (Genprobe). In a laminar flow hood, cells (1-5×10^4) are plated into 96-well microtiter plates in a volume of 0.1 ml/well with a bulk microtiter dispenser (Denley). […] At this concentration, dimethylsulfoxide has no effect on cell growth. Compounds are added using a Tomtec dispenser which simultaneously dispenses from one 96-well plate, containing the drug dilutions, to the plates containing the cells. After two days of continuous drug exposure, 50% cold trichloroacetic acid (TCA) is added to 10% final concentration to fix the cells, and after 60 minutes at 4° C., the TCA is aspirated and the plates are washed 5 times with deionized water using a microtiter plate washer. The number of cells on the plate are quantitated using a protein dye-binding assay (Monks et al., 1991). A 0.4% solution of the dye, sulforhodamine B, in […] is added to the plates, and the plates are washed 5 times with 1% […] using the automatic plate washed. The bound stain is solubilized with 0.1 ml of 10 mM Tris base. The optical densities are read from an automatic spectrophotometric plate reader (Dynatech) directly to a main frame computer (VAX 8600). Positive controls, that include standard chemotherapeutic drugs (i.e., Adriamycin, Cisplatin, etc.), are included in every experiment. Background optical density measurements (complete media-cells, and complete media+drug-cells) are automatically subtracted from the appropriate control and test wells. Mean values and standard errors are determined from duplicate wells. A measure is also made of the optical density at time when the drugs are added. The number of cells after treatment (P), as % of control, is calculated for every concentration of drug, as follows: [formula] wherein: T is optical density measurement for treated cells after 48 hours; C is optical density measurement for untreated cells after 48 hours; Co is optical density measurement for cells at the time of drug addition. IC50 of growth inhibition is calculated from the sets of P values using the RS-1 data package (BBN Software). Table 1 presents the results depicting the antiproliferative activity of the compounds of Formula I against an Adult Bovine Aortic Endothelial cell line (ABAE), as evaluated by PROTOCOL 1 and 2. The results are presented in terms of IC50 and are as follows.

The test system of the next assay is MIP. Kind of assay: Antiproliferative activity in human tumor cell lines: MIP (colon). In kind it is cell-based. The following applies: PROTOCOL 1 and PROTOCOL 2, 48 hours. How it is done:
The antiproliferative activity of the compounds of Formula I in an Adult Bovine Aortic Endothelial (ABAE) cell line and in Human Tumor cell lines is evaluated in three similar assays that measure growth inhibition. The assays are identified as follows:
PROTOCOL 1,2,and 3 are described in greater detail hereinbelow. In general, according to PROTOCOLS 1 and 2, the target ABAE and/or Human Tumor cells are exposed to the compounds of Formula I for 48 hours. PROTOCOL 3 exposes ABAE cells to the compounds for 4 days. A detailed description of the protocols is as follows:
The antiproliferative activity of the compounds of Formula I of the present invention is evaluated in a panel comprised of human tumor cell lines and an adult bovine aortic endothelial cell line (ABAE). The human tumor cell lines are from
All cell lines are maintained in log phase in RPMI 1640 media, supplemented with 5% fetal calf serum, penicillin/streptomycin and 2 mM L-glutamine. Cultures are renewed after 20 passages with cells from a fresh stock of batch-frozen early passage cells. Cell lines are routinely checked for mycoplasma contamination (Genprobe). In a laminar flow hood, cells (1-5×10^4) are plated into 96-well microtiter plates in a volume of 0.1 ml/well with a bulk microtiter dispenser (Denley). […] At this concentration, dimethylsulfoxide has no effect on cell growth. Compounds are added using a Tomtec dispenser which simultaneously dispenses from one 96-well plate, containing the drug dilutions, to the plates containing the cells. After two days of continuous drug exposure, 50% cold trichloroacetic acid (TCA) is added to 10% final concentration to fix the cells, and after 60 minutes at 4° C., the TCA is aspirated and the plates are washed 5 times with deionized water using a microtiter plate washer. The number of cells on the plate are quantitated using a protein dye-binding assay (Monks et al., 1991). A 0.4% solution of the dye, sulforhodamine B, in glacial acetic acid is added to the plates, and the plates are washed 5 times with 1% glacial acetic acid using the automatic plate washed. The bound stain is solubilized with 0.1 ml of 10 mM Tris base. The optical densities are read from an automatic spectrophotometric plate reader (Dynatech) directly to a main frame computer (VAX 8600).
Positive controls, that include standard chemotherapeutic drugs (i.e., Adriamycin, Cisplatin, etc.), are included in every experiment.
Background optical density measurements (complete media-cells, and complete media+drug-cells) are automatically subtracted from the appropriate control and test wells. Mean values and standard errors are determined from duplicate wells. A measure is also made of the optical density at time when the drugs are added. The number of cells after treatment (P), as % of control, is calculated for every concentration of drug, as follows: [formula] wherein: T is optical density measurement for treated cells after 48 hours;
C is optical density measurement for untreated cells after 48 hours;
Co is optical density measurement for cells at the time of drug addition.
IC50 of growth inhibition is calculated from the sets of P values using the RS-1 data package (BBN Software).
The antiproliferative activity of the compounds of Formula I is evaluated in a panel comprised of human tumor cell lines and an adult bovine aortic cell line (ABAE) as listed in PROTOCOL 1. This assay is a modification of PROTOCOL 1. The modifications include:
1) each concentration for each compound is tested in a single well;
2) compounds are tested at 20, 4, 0.8, 0.16 microgram/ml and additionally in some experiments at 100 and 0.32 microgram/ml;
3) samples are pipetted into a 96-well plate for each of the cell lines by a Beckman Biomek 1000 SL robot;
4) after fixing with TCA each well is washed with 0.35 ml distilled water twice, not five times;
5) after staining with sulforhodamine B each well is washed 3 times, not five times; […]

Structures can show the parent of a compound that is named as a salt.

Take `CN(C)[C@@H]1C(O)=C(C(N)=O)C(=O)[C@@]2(O)C(O)=C3C(=O)c4c(cc(Cl)c(NC(=O)CN5CCCCC5)c4O)CC3CC12` (stereo partly drawn) [Example 10, 7S-(7α,10aα)]-N-[9-(Aminocarbonyl)-3-chloro-7-(dimethylamino)-5,5a,6,6a,7,10,10a,12-octahydro-1,8,10a,11-tetrahydroxy-10,12-dioxo-2-naphthacenyl]-1-piperidineacetamide dihydrochloride]: the IC50 (in assay [1]; in the assay with MIP) was 0.7 µg/mL each time.

As to `CNCC(=O)Nc1c(Cl)cc2c(c1O)C(=O)C1=C(O)[C@]3(O)C(=O)C(C(N)=O)=C(O)[C@@H](N(C)C)C3CC1C2` (stereo partly drawn) [Example 7, [4S-(4α, 12aα)]-8-Chloro-4-(dimethylamino)-1,4,4a,5,5a,6,11,12a-octahydro-3,10,12,12a-tetrahydroxy-1,11-dioxo-9-[[(methylamino)acetyl]amino]-2-naphthacenecarboxamide dihydrochloride], the figures for the IC50 (in assay [1]; in the assay on MIP) were 3.3 µg/mL and 8.5 µg/mL, respectively.

On to `CN(C)CC(=O)Nc1c(Cl)cc2c(c1O)C(=O)C1=C(O)[C@]3(O)C(=O)C(C(N)=O)=C(O)[C@@H](N(C)C)C3CC1C2` (stereo partly drawn) [Example 3, [4S-(45, 12aα)]-8-Chloro-4-(dimethylamino)-9[[(dimethylamino)acetyl]amino]-1,4,4a,5,5a,6,11,12a-octahydro-3,10,12,12a-tetrahydroxy-1,11-dioxo-2-naphthacenecarboxamide disulfate], for which the IC50 (in assay [1]; in the assay with MIP) was 2.2 µg/mL in each case.

Consider `CN(C)[C@@H]1C(O)=C(C(N)=O)C(=O)[C@@]2(O)C(O)=C3C(=O)c4c(cc(Cl)c(NC(=O)CN5CCCC5)c4O)CC3CC12` (stereo partly drawn) [Example 9, [7S-(7α,10aα)]-N-[9-(Aminocarbonyl)-3-chloro-7-(dimethylamino)-5,5a,6,6a,7,10,10a,12-octahydro-1,8,10a,11-tetrahydroxy-10,12-dioxo-2-naphthacenyl]-1-pyrrolidineacetamide dihydrochloride], for which the IC50 (usually the concentration that inhibits the measured activity by half) was found to be 2.5 µg/mL in assay [1] and 0.8 µg/mL with MIP.

Consider `CCCNCC(=O)Nc1c(Cl)cc2c(c1O)C(=O)C1=C(O)[C@]3(O)C(=O)C(C(N)=O)=C(O)[C@@H](N(C)C)C3CC1C2` (stereo partly drawn) [Example 5, [4S-(4α, 12aα)]-8-Chloro-4-(dimethylamino)-1,4,4a,5,5a, 6,11,12a-octahydro-3,10,12,12a-tetrahydroxy-1,11-dioxo-9-[[(propylamino)acetyl]amino]-2-naphthacenecarboxamide dihydrochloride], for which the IC50 was determined as 2 µg/mL in assay [1] and 10 µg/mL in the assay with MIP.

Consider `CN(C)c1c(Cl)cc(O)c2c1CC1CC3[C@H](N(C)C)C(O)=C(C(N)=O)C(=O)[C@@]3(O)C(O)=C1C2=O` (stereo partly drawn) [Example 11, [4S-(4α,12aα)]-8-Chloro-4,7-bis(dimethylamino)-1,4,4a,5,5a,6,11,12a-octahydro-3,10,12,12a-tetrahydroxy-1,11-dioxo-2-naphthacenecarboxamide sulfate], for which the IC50 worked out at 3 µg/mL in assay [1] and 2.6 µg/mL with MIP.

With `CCCCCNCC(=O)Nc1c(Cl)cc2c(c1O)C(=O)C1=C(O)[C@]3(O)C(=O)C(C(N)=O)=C(O)[C@@H](N(C)C)C3CC1C2` (stereo partly drawn) [Example 6, [4S-(4α, 12aα)]-8-Chloro-4-(dimethylamino)-1,4,4a,5,5a,6,11,12a-octahydro-3,10,12,12a-tetrahydroxy-1,11-dioxo-9-[[(pentylamino)acetyl]amino]-2-naphthacenecarboxamide dihydrochloride], the IC50 amounted to 0.6 µg/mL in assay [1] and 1.5 µg/mL with MIP.

Turning to `CCCCNCC(=O)Nc1c(Cl)cc2c(c1O)C(=O)C1=C(O)[C@]3(O)C(=O)C(C(N)=O)=C(O)[C@@H](N(C)C)C3CC1C2` (stereo partly drawn) [Example 4, [4S-(4α, 12aα)]-9-[[(Butylamino)acetyl]amino]-8-chloro-4-(dimethylamino) -1,4,4a,5,5a,6,11,12a-octahydro-3,10,12,12a-tetrahydroxy-1,11-dioxo-2-naphthacenecarboxamide dihydrochloride], the IC50 in assay [1] worked out at 2.3 µg/mL; with MIP, 3.1 µg/mL.

As to `CN(C)[C@@H]1C(O)=C(C(N)=O)C(=O)[C@@]2(O)C(O)=C3C(=O)c4c(cc(Cl)c(NC(=O)CNCC5CC5)c4O)CC3CC12` (stereo partly drawn) [Example 8, [4S-(4α,12aα)]-8-Chloro-9-[[(cyclopropylmethylamino)-acetyl]amino]4-(dimethylamino)-1,4,4a,5,5a,6,11,12a-octahydro-3,10,12,12a-tetrahydroxy-1,11-dioxo-2-naphthacenecarboxamide dihydrochloride], the IC50 was found to be 2 µg/mL in assay [1] and 3.8 µg/mL with MIP.
